Seven molecules from patent US7338778B2, “Luminescent method for determining cell oxygen consumption” (Becton, Dickinson and Company, priority 1991, dated 2008) can be followed below.

Experiment [1] relates to E. coli (ATCC #25922). As to the kind of experiment: Effect of antibiotics on oxygen consumption of E. coli, Ru(BiPy)3Cl2 indicator tray (Example 9). Conditions: all concentrations (0.5 to 8 ug/ml), 4 hours. The experiment is classed as cell-based. As to the method: A 96 well Microtiter tray was produced essentially as in Example 1, except that tris-(2,2′ bipyridyl)-ruthenium (II) chloride hexahydrate (Aldrich Chemical Company, Milwaukee, Wis.) [Ru(BiPy)3Cl2] was substituted for Ru(DPP)3Cl2 in the silicone mixture. A second tray containing 9,10-diphenyl anthracene (DPA) was also prepared. All wells were charged with 150 ul of 1×10^7 CFU/ml E. coli (ATCC #25922) in broth. Table 3 lists the results at 0, 1, 2, 3, and 4 hours after addition of organisms.
(§1) A 0.5 McFarland suspension of E. coli (ATCC #25922) in Broth A (see Example 1) was prepared using an A-Just nephelometer. […] The trays were incubated at 37° C. for 4 hours and their fluorescence measured in a Fluoroskan II fluorometer.

Experiment [2] deals with E. coli (ATCC #25922). As to the kind of experiment: Effect of antibiotics on oxygen consumption of E. coli, DPA indicator tray (Example 10). The class given is cell-based. Conditions: all concentrations (0.5 to 8 ug/ml), 4 hours.
Experiment [3] relates to E. coli (ATCC #25922). Kind of experiment: Effect of antibiotics on E. coli, Ru(DPP)3Cl2 indicator tray (Example 8). The experiment is classed as cell-based. Conditions: all concentrations (0.5 to 8 ug/ml), 4 hours. The method, then: as §1
The fluorescent compound tris 4,7-diphenyl-1,10-phenanthroline ruthenium (II) chloride (Ru(DPP)3Cl2) was synthesized using the procedure of Watts and Crosby (J. Am.Chem. Soc. 93, 3184(1971)). A total of 3.6 mg of the compound was dissolved in 2.0 ml dimethyl sulfoxide (D-5879, Sigma Chemical, St. Louis, Mo.) and the resultant solution was then added slowly, with stirring, to 1300 ml silicone rubber forming solution (Water Based Emulsion #3-5024, Dow Corning, Midland, Mich.). A 35 microliter aliquot of the mixture was subsequently dispensed into each well of a 96 well, flat bottom, white microtiter tray (#011-010-7901, Dynatech, Chantilly, Va.), and the system was subsequently cured overnight in a low humidity (less than 25% RH), 60° C. incubator. After curing, the trays were washed by either soaking or by filling and emptying each well several times with each of the following reagents; a) absolute ethanol, b) 0.1 M phosphate buffer pH 7.2, c) hot distilled water (about 45° C.) and d) ambient temperature distilled water.

Experiment [4] concerns HL60 cells. Kind of experiment: Cytotoxicity assay by MTT. The experiment is classed as cell-based. Conditions: Homo sapiens, read-out: IC50 MTT. As to the method:
In parallel with the oxygen sensor assays, MTT assays were performed using a Cell Titer Kit™ (Promega), as in Example 20, with the following exceptions. For each time point (corresponding to oxygen sensor assay time point), one flat-bottom 96 well microtiter plate (Falcon) was used. 50 uL of drug dilution in tissue culture media was used for initial reading and cells were suspended in 50 uL media, to the final volume of 100 uL. At indicated time points, 10 uL of MTT reagent was added per well for 1 hour, after which 100 uL of the stop/lysis buffer was added. Plates were sealed with Parafilm™ and cell lysis occurred overnight. Absorbance (570 nm corrected by absorbance at 750 nm) was read using a Thermomax Microplate Reader (Molecular Devices). Mean absorbance from 5 wells per data point, with standard deviation as error bars, was plotted against vinblastine concentration (FIG. 13).
These experiments was performed as described in Example 20, with the exception that appropriate dilutions of the above reagents were substituted for vinblastine: 0.01 nM to 10000 nM methotrexate, 0.00001 to 10 mM sodium azide, and 2 to 2000 uM SDS respectively.

Experiment [5] concerns HL60 cells. Kind of experiment: Cytotoxicity assay in oxygen sensor plates. The class given is cell-based. Conditions: Homo sapiens, read-out: IC50 O2 Sensor. As to the method:
Oxygen sensor plates were prepared by the general methods described herein. Falcon 1177 polystyrene 96 well U-bottom plates (BD Labware) were used for all experiments. The fluorescent dye Ru(DPP)3Cl2 was adsorbed to silica gel by rotary evaporation of ethanolic solutions of the dye with the silica gel. The adsorbed dye-silica and a moisture-cure clear silicone were mixed manually and immediately applied to plate wells with approximately 17 uL silicone per well. These were cured for 2-3 days in a controlled humidity incubator.
All data was obtained with a BMG Polarstar fluorimeter at 37° C. using the bottom plate reading configuration. The bandpass filters were 465 nm for excitation and 590 nm for emission. For the experiments with […]®, a Cytofluor 4000 fluorometer was used with a 485 nm excitation filter and a 580 nm emission filter. Data was read at selected time intervals. Normalized fluorescence data was generally obtained by dividing well values at selected time points by the same well's initial reading with only media or buffer present prior to adding cells.
Cells used for cytotoxicity and quantitation experiments (HL60, U937; ATCC) were grown in tissue culture media recommended by the supplier (RPMI; Gibco and ATCC, respectively). The media was supplemented with either 20% fetal bovine serum (Hyclone) for the HL60 cells or 10% FBS for the U937 cells, with the addition of penicillin, streptomycin and fungizone (Gibco) to prevent microbial contamination. Cells were maintained in a tissue culture incubator (37° C., 5% CO2, 95% humidity) during all experiments between readings.
HL60 cells (human promyelocytic leukemia cell line, ATCC #45500) were grown in tissue culture media recommended by the supplier (RPMI; Gibco), supplemented with 20% fetal bovine serum, heat inactivated at 50° C. for thirty minutes with the addition of penicillin, streptomycin and fungizone (Gibco) to prevent microbial contamination. Cells were maintained in tissue culture incubator (37° C., 5% CO2, 95% humidity) during all experiments. Fluorescence of the oxygen sensor was read on a Polarstar™ fluorometer (BMG), using 465 nm excitation and 590 nm emission filters.
100 uL of tissue culture media was aliquoted into the wells of the Oxygen sensor plate and plate was allowed to equilibrate in the tissue culture incubator for 1 hour prior to taking the initial reading. This reading was used to normalize all subsequent readings to account for well to well variability. Cells were resuspended in fresh media at 960,000 cells/mi. Serial 1:2 dilution of this stock was performed and 100 uL of each dilution was alliquoted across the length of the plate in replicates of 12 (rows B-H), with final cell/well number from 1,500 to 96,000. In row A, 100 uL of tissue culture media was alliquoted into the wells in lieu of cells (no-cells control). Fluorescence measurements were taken every 24 hours over 5 days. The actual number of cells present was counted with a hemocytometer by sampling the parallel well (same seeding cell number). Mean fluorescence from 5 wells per data point (n=5) was plotted against the counted cell number (FIG. 10). Error bars are standard deviation of the mean.
The experiment was performed as described in Example 18, with the following exceptions. Serial dilutions of vinblastine were prepared at twice the final concentration (100 nM to 0.1 nM) in tissue culture media.100 uL of the drug dilution in tissue culture media was aliquoted across the width of the plate in replicates of five, reserving one column for no-drug (media only) control. After an initial reading, a constant number of cells (200,000/well) in 100 uL media were added to each well of rows A-E of the oxygen sensor plate, reserving rows F-H for no-cells control. Fluorescence was read at the indicated times. Mean fluorescence from 5 wells per data point (n=5) was plotted against vinblastine concentration (FIG. 12).

The subject of experiment [6] is Pseudomonas aeruginosa (ATCC #10145). Conditions: 1.5×10^8 CFU/ml, 37° C., times less than two hours. As to the method: A suspension containing about 3×10^8 CFU/ml, of Pseudomonas aeruginosa (ATCC #10145) in Broth A was prepared using an A-Just nephelometer. A total of 150 ul of the suspension was placed in each well of the indicator trays prepared as in Example 1; these suspensions were then diluted with solutions of phenol or copper sulfate (which are deleterious to microbial growth) to a final concentration of 1.5×10^8 CFU/ml. The trays were incubated at 37° C. and their fluorescence measured in a Fluoroskan II at 10 minute intervals.

Consider `O=C(O)c1cn(C2CC2)c2cc(N3CCNCC3)c(F)cc2c1=O` [Ciprofloxacin, ciprofloxacin], for which the “susceptibility of E. coli by fluorescence counts” value in the experiment on E. coli (ATCC #25922) [1], in the experiment with E. coli (ATCC #25922) [2] and in the experiment on E. coli (ATCC #25922) [3] was “sensitive” throughout.

For the molecule `CN(Cc1cnc2nc(N)nc(N)c2n1)c1ccc(C(=O)N[C@@H](CCC(=O)O)C(=O)O)cc1` [Methotrexate, methotrexate], the IC50 in the experiment on HL60 cells [4] (HL-60, HL60 cells, 120 hours) stood at 14 nM; in the experiment on HL60 cells [5] (HL-60, HL60 cells, 96 hours), 19 nM; in the experiment on HL60 cells [5] (HL-60, HL60 cells, 120 hours) it was 12 nM.

Take `CCCCCCCCCCCCOS(=O)(=O)[O-].[Na+]` [SDS, Sodium Dodecyl Sulfate]: the IC50 amounted to 500000 nM in the experiment with HL60 cells [4] (HL-60, HL60 cells, 24 hours); 440000 nM in the experiment with HL60 cells [4] (HL-60, HL60 cells, 48 hours); 430000 nM in the experiment on HL60 cells [4] (HL-60, HL60 cells, 72 hours); 340000 nM with HL60 cells [5] (HL-60, HL60 cells, 24 hours); 300000 nM with HL60 cells [5] (HL-60, HL60 cells, 48 hours); 300000 nM in the experiment with HL60 cells [5] (HL-60, HL60 cells, 72 hours).

Consider `[N-]=[N+]=[N-]` [Sodium Azide, sodium azide], for which the IC50 in the experiment on HL60 cells [4] (HL-60, 48 h) amounted to 25000 nM; in the experiment with HL60 cells [4] (HL-60, 72 h), 25000 nM; in the experiment with HL60 cells [4] (HL-60, 96 h), 3000 nM; in the experiment with HL60 cells [4] (HL-60, 120 h) it was 1600 nM; with HL60 cells [5] (HL-60, 48 h) it was 13000 nM; in the experiment on HL60 cells [5] (HL-60, 72 h), 13000 nM. Moreover, the IC50 worked out at 9000 nM with HL60 cells [5] (HL-60, 96 h) and 5800 nM in the experiment on HL60 cells [5] (HL-60, 120 h).

Consider `CC[C@]1(O)C[C@@H]2CN(CCc3c([nH]c4ccccc34)[C@@](C(=O)OC)(c3cc4c(cc3OC)N(C)[C@H]3[C@@](O)(C(=O)OC)[C@H](OC(C)=O)[C@]5(CC)C=CCN6CC[C@]43[C@@H]65)C2)C1` [Vinblastine, vinblastine], for which the IC50 in the experiment on HL60 cells [4] (HL-60, HL60 cells, 48 hours) was found to be 9 nM; in the experiment with HL60 cells [4] (HL-60, HL60 cells, 72 hours), 8 nM; in the experiment with HL60 cells [4] (HL-60, HL60 cells, 96 hours), 7 nM; in the experiment on HL60 cells [4] (HL-60, HL60 cells, 120 hours), 6.4 nM; in the experiment on HL60 cells [5] (HL-60, HL60 cells, 48 hours) it was 11 nM; in the experiment on HL60 cells [5] (HL-60, HL60 cells, 72 hours), 11 nM. In addition, the IC50 turned out to be 9 nM with HL60 cells [5] (HL-60, HL60 cells, 96 hours) and 9 nM in the experiment on HL60 cells [5] (HL-60, HL60 cells, 120 hours).

Consider `O=S(=O)([O-])[O-].[Cu+2]` [copper sulfate], for which the “concentration at which wells had no increase in fluorescence signal (absence of actively metabolizing organisms)” value in experiment [6] was “greater than 500 mg/liter”.

For the molecule `Oc1ccccc1` [phenol], the “concentration at which wells had no increase in fluorescence signal (absence of actively metabolizing organisms)” value in experiment [6] is reported as at least 1 gram/liter.
